Key:
[1] = target: T1, Alpha-glucosidase (Saccharomyces cerevisiae, UniProt P53341); experiment: biochemical; settings: for inhibition at 500 µM: pH 6.8, read-out: Inhibition (%) at 0.5 mM; for IC50: pH 6.8, 30 min incubation
T1 construct: purchased 5003-1KU Type I
Method: The alpha-glucosidase inhibitory assay was performed by adopting the method of Pierre et al., with minor modifications. Alpha-glucosidase (Cat No. 5003-1KU Type I) belonging to Saccharomyces cerevisiae was selected for this protocol because its structure and function were similar to yeast and mammalian enzymes. In test tubes, 10 μL of test compound (0.5 mM), 70 μL of saline phosphate buffer (50 mM) to adjust pH at 6.8, and 10 μL of α-glucosidase enzyme (0.0234 units) were added to prepare […] assay mixture. A quantity of 10 μL p-nitrophenyl-α-D-glucopyranoside (0.5 mM, N1377 from Sigma, Burlington, MA, USA) was added to initiate the reaction and tubes were incubated for 30 min. […] Free substrate change in absorbance was monitored at 400 nm. The alpha-glucosidase inhibitory activity was calculated as percentage inhibition by using formula:% Inhibition = [(Abs. of control − Abs. of test)/Abs. of control] × 100
IC50 values were determined using EZ-Fit enzyme kinetics software version 5.03 (Perrella Scientific Inc. Amherst, Amherst, MA, USA).

T1 sequence (P53341 whole entry): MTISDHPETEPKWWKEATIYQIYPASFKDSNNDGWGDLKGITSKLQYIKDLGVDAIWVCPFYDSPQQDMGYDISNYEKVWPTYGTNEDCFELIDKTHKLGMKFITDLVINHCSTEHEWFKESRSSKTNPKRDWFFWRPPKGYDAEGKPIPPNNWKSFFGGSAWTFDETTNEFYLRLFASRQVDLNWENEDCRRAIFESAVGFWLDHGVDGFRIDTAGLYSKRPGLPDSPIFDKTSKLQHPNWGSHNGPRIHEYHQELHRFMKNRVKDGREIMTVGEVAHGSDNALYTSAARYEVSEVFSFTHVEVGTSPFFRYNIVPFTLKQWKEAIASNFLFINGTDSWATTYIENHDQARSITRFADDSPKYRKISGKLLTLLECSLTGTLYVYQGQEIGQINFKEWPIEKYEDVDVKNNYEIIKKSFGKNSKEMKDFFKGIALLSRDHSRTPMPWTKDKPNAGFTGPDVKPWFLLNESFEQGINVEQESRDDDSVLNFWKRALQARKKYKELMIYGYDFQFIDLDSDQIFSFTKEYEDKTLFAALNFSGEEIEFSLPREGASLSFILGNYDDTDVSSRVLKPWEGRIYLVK

Row | SMILES | inhibition at 500 µM [1] | melting point | IC50 [1]
1 | CCCNC(=O)CCCn1nnc2ccccc2c1=O [14a, N-propyl-4-(4-Oxobenzo[1,2,3]triazin-3(4H)-yl)butanamide] | 39.13 ± 0.19% | 127 to 128 °C | –
2 | CCCCNC(=O)CCCn1nnc2ccccc2c1=O [14b, N-Butyl-4-(4-oxobenzo[1,2,3]triazin-3(4H)-yl)butanamide] | 67.53 ± 0.14% | 123 to 124 °C | 243.41 ± 0.18 µM
3 | CCCCCNC(=O)CCCn1nnc2ccccc2c1=O [14c, N-pentyl-4-(4-Oxobenzo[1,2,3]triazin-3(4H)-yl)butanamide] | 42.34 ± 0.25% | 106 to 107 °C | –
4 | CCCCCCNC(=O)CCCn1nnc2ccccc2c1=O [14d, N-Hexyl-4-(4-oxobenzo[1,2,3]triazin-3(4H)-yl)butanamide] | 66.2 ± 0.11% | 102 to 103 °C | 335.04 ± 0.07 µM
5 | CCCCCCCNC(=O)CCCn1nnc2ccccc2c1=O [14e, N-Heptyl-4-(4-oxobenzo[1,2,3]triazin-3(4H)-yl)butanamide] | 40.23 ± 0.21% | 100 to 101 °C | –
6 | CCCCCCCCNC(=O)CCCn1nnc2ccccc2c1=O [14f, N-Octyl-4-(4-oxobenzo[1,2,3]triazin-3(4H)-yl)butanamide] | 30.57 ± 0.16% | 95 to 96 °C | –
7 | Cc1cc(C)cc(NC(=O)CCCn2nnc3ccccc3c2=O)c1 [14g, N-(3,5-Dimethylphenyl)-4-(4-oxobenzo[1,2,3]triazin-3(4H)-yl)butanamide] | 78.32 ± 0.18% | 110 to 111 °C | 196.52 ± 0.08 µM
8 | O=C(CCCn1nnc2ccccc2c1=O)Nc1ccc(Br)cc1 [14h, N-(4-Bromophenyl)-4-(4-oxobenzo[1,2,3]triazin-3(4H)-yl)butanamide] | 74.25 ± 0.27% | 115 to 116 °C | 238.15 ± 0.15 µM
9 | O=C(CCCn1nnc2ccccc2c1=O)Nc1ccc(Cl)cc1 [14i, N-(4-Chlorophenyl)-4-(4-oxobenzo[1,2,3]triazin-3(4H)-yl)butanamide] | 82.77 ± 0.2% | 144 to 145 °C | 163.29 ± 0.13 µM
10 | O=C(CCCn1nnc2ccccc2c1=O)Nc1cccc(Cl)c1 [14j, N-(3-Chlorophenyl)-4-(4-oxobenzo[1,2,3]triazin-3(4H)-yl)butanamide] | 89.35 ± 0.21% | 209 to 210 °C | 52.01 ± 0.07 µM
11 | Cc1ccc(NC(=O)CCCn2nnc3ccccc3c2=O)cc1 [14k, N-(4-methylphenyl)-4-(4-Oxobenzo[1,2,3]triazin-3(4H)-yl)butanamide] | 94.18 ± 0.23% | 175 to 176 °C | 27.13 ± 0.12 µM
12 | Cc1cccc(NC(=O)CCCn2nnc3ccccc3c2=O)c1 [14l, N-(3-methylphenyl)-4-(4-Oxobenzo[1,2,3]triazin-3(4H)-yl)butanamide] | 92.63 ± 0.12% | 105 to 106 °C | 32.14 ± 0.11 µM
13 | COc1ccccc1NC(=O)CCCn1nnc2ccccc2c1=O [14m, N-(2-Methoxyphenyl)-4-(4-oxobenzo[1,2,3]triazin-3(4H)-yl)butanamide] | 84.31 ± 0.18% | 139 to 140 °C | 121.3 ± 0.15 µM
14 | COc1ccc(NC(=O)CCCn2nnc3ccccc3c2=O)cc1 [14n, N-(4-Methoxyphenyl)-4-(4-oxobenzo[1,2,3]triazin-3(4H)-yl)butanamide] | 87.46 ± 0.15% | 147 to 148 °C | 75.37 ± 0.14 µM
